Data published in patent US20070275999A1, “PHARMACEUTICAL COMPOSITIONS CONTAINING A HYPOGLYCEMIC AGENT(S) FOR IMPROVING OR TREATING IMPAIRED GLUCOSE TOLERANCE, BORDERLINE DIABETES, INSULIN RESISTANCE OR HYPERINSULINEMIA” (Ajinomoto Co., Inc., priority 2005, published 2007).

What was measured:
[1] = system: Zucker Fatty (ZF) rats; assay: Circadian changes of blood glucose and insulin under restricted feeding after four weeks of treatment; assay type: in vivo, rat
Text: The effectiveness of mitiglinide was examined by using Zucker Fatty (ZF) rats, which have the feature of obesity and insulin resistance. It is known that though ZF rats have hyperinsulinemia and impaired glucose tolerance, their fasting blood glucose is within a normal range and, therefore, their pathology is similar to IGT in human being (Br J Pharmacol 125, 1708-14, 1998).
Male Zucker Fatty rats of 6 weeks old were introduced and acclimatized to the restricted feeding of one hour each (9:00 to 10:00 and 15:00 to 16:00) twice per a day. After acclimatization for one week, the rats were randomly divided into two groups, and drugs were administered to them for four weeks. As the drugs, mitiglinide suspended in 0.5% methylcellulose was forcibly orally administered to one group to become a dose of 3 mg/kg, and only 0.5% methylcellulose solution that is a dose vehicle was forcibly orally administered to the other group just before each meal twice per a day. The circadian changes of their blood glucose and insulin that occurred under the restricted feeding were measured upon starting the administration and in the fourth week after its start. The drugs were not administered on the measurement day, and their blood was collected through the caudal vein before morning feeding (9:00), one hour after the feeding (10:00), two hours after the feeding (11:00), before afternoon feeding (15:00), one hour after the feeding (16:00), and two hours after the feeding (17:00). Then, their blood glucose and insulin were measured in accordance with the routine method.

[2] = system: Zucker Fatty (ZF) rats; assay: Insulin tolerance test (ITT); assay type: in vivo, rat
Description: On another day of the fourth week, the insulin tolerance test (ITT) was conducted in order to examine the degree of improvement of the general insulin resistance. Commercially available insulin preparation (NOVORIN R, NOVO) diluted to 0.5 U/mL with a normal saline solution was subcutaneously injected to the back of ZF rats fasted overnight to become 0.5 U/kg. Their blood was collected through the caudal vein 15, 30, 60, 120 and 180 minutes after the administration to measure their blood glucose. The blood glucose was measured in accordance with the routine method.
In response to the above results, ITT was conducted in order to more precisely quantify the degree of improvement of the general insulin sensitivity. […] However, the blood glucose lowered by about 50% of the level before the administration in 60 minutes after the administration of insulin due to the treatment by mitiglinide.

[3] = feeding 9:00 to 10:00 and 15:00 to 16:00, fourth week, 3 mg/kg
[4] = male ZF rats, 3 mg/kg orally just before each meal twice per day for four weeks, measured in fourth week, no drug on measurement day

O=C(O)[C@H](CC(=O)N1C[C@H]2CCCC[C@H]2C1)Cc1ccccc1 [Mitiglinide, (2S)-2-benzyl-4-[(3aR, 7aS) -octahydro-2H-isoindole-2-yl]-4-oxobutanoic acid]
Circadian changes of the blood glucose (FIG. 1) [1, 3]: no change
Insulin level in the blood plasma (FIG. 2) [1, 3]: decrease of the insulin level was clearly seen
Sum of the circadian changes of blood glucose [1, 4]: 1050 ± 20 mg·h/dL
Sum of the circadian changes of insulin [1, 4]: 224 ± 11 ng·h/mL
Sum of blood glucose ([2]; ITT in fourth week, insulin 0.5 U/kg s.c., ZF rats fasted overnight, blood 15-180 min after insulin): 243 ± 7 mg·h/dL
Blood glucose lowering relative to the level before the administration of insulin ([2]; ITT, 60 minutes after insulin 0.5 U/kg s.c., FIG. 3): about 50%
